Molecules are shown by their SMILES.

We go through seven compounds from ChEMBL document CHEMBL3867463, “Cytotoxic lanostanes from fruits of Garcinia wallichii Choisy (Guttiferae)” (Bioorg Med Chem Lett, 2016).

A short description of data set [1]: Cytotoxicity against mouse P388 cells by SRB method. The format is functional. Particulars: read-out: ED50 (the source's name).
Data set [2] in a line: Cytotoxicity against human KB cells by SRB method. The format is functional. Conditions: read-out: ED50 (the source's name). (In general: Sulforhodamine B stains cellular protein and so reports cell mass.)
Data set [3] can be described thus: Cytotoxicity against human HT-29 cells by SRB method. Conditions: read-out: ED50 (the source's name). The format is functional.
Data set [4] can be described thus: Cytotoxicity against human MCF7 cells by SRB method. Conditions: read-out: ED50 (the source's name). The format is functional.
Data set [5] in a line: Cytotoxicity against human A549 cells by SRB method. The format is functional. Particulars: read-out: ED50 (the source's name).
A short description of data set [6]: Cytotoxicity against rat ASK cells by SRB method. The format is functional. Conditions: read-out: ED50 (the source's name).
Data set [7] is described as follows: Cytotoxicity against human colon cancer cells by SRB method. The format is functional. Conditions: Cancer cell lines, read-out: ED50 (the source's name).
The nature of data set [8]: Cytotoxicity against human HEK293 cells by SRB method. Conditions: read-out: ED50 (the source's name). The format is toxicity, cell-based.

As for `C/C(=C\C=C\[C@@H](C)[C@H]1CC[C@@]2(C)[C@@H]3CC[C@H]4C(C)(C)C(=O)CC[C@]4(C)[C@@]3(O)CC[C@]12C)C(=O)O`, the EC50 in data set [1], in data set [2], in data set [3], in data set [4], in data set [5] and in data set [6] was greater than 50 µM each time. In addition, the EC50 in data set [7] was greater than 50 µM. In data set [8], the CC50 was greater than 50 µM.

Regarding `COC(=O)/C(C)=C/C=C/[C@@H](C)[C@H]1CC[C@@]2(C)[C@@H]3CC[C@H]4C(C)(C)[C@]5(O)CC[C@]4(CO5)[C@@]3(O)CC[C@]12C`, the EC50 in data set [1], in data set [2], in data set [3], in data set [4], in data set [5] and in data set [6] was greater than 50 µM throughout. For the same compound, in data set [7], the EC50 was greater than 50 µM. The CC50 in data set [8] is greater than 50 µM.

In the case of `C/C(=C\C=C\[C@@H](C)[C@H]1CC[C@@]2(C)[C@@H]3CC[C@H]4C(C)(C)[C@]5(O)CC[C@]4(CO5)[C@@]3(O)CC[C@]12C)C(=O)O`, the EC50 came out at 3.91 µM in data set [1]; 4.79 µM in data set [2]; 5.39 µM in data set [3]; 6.19 µM in data set [4]; 5.69 µM in data set [5]; 7.63 µM in data set [6]. Further, the EC50 in data set [7] was 4.73 µM. The CC50 in data set [8] came out at 6.89 µM.

As to `C/C(=C\CC[C@@H](C)[C@H]1CC[C@@]2(C)[C@@H]3CC[C@H]4C(C)(C)[C@@H](O)CC[C@]4(C)[C@@]3(O)CC[C@]12C)C(=O)O`, the EC50 is 24.1 µM in data set [1]; 29.9 µM in data set [2]; 23.7 µM in data set [3]; greater than 50 µM in data set [4]; 35.1 µM in data set [5]; greater than 50 µM in data set [6]. Also, in data set [7], the EC50 was greater than 50 µM. Further, the CC50 in data set [8] was greater than 50 µM.

In the case of `COC(=O)/C(C)=C/C=C/[C@@H](C)[C@H]1CC[C@@]2(C)[C@@H]3CC[C@H]4C(C)(C)C(=O)CC[C@]4(C)C3=CC[C@]12C`, the EC50 in data set [1], in data set [2], in data set [3], in data set [4], in data set [5] and in data set [6] was greater than 50 µM in each case. In addition, the EC50 in data set [7] was greater than 50 µM. Further, the CC50 in data set [8] was greater than 50 µM.

As to `C/C(=C\CC[C@@H](C)[C@H]1CC[C@@]2(C)[C@@H]3CC[C@H]4C(C)(C)C(=O)CC[C@]4(C)[C@@]3(O)CC[C@]12C)C(=O)O`, the EC50 in data set [1], in data set [2], in data set [3], in data set [4], in data set [5] and in data set [6] was greater than 50 µM in each case. For the same compound, in data set [7], the EC50 is greater than 50 µM. Moreover, the CC50 in data set [8] was greater than 50 µM.

Take `Cc1c2ccncc2c(C)c2c1[nH]c1ccccc12` [ELLIPTECINE]: the EC50 came to 2.15 µM in data set [1]; 2.03 µM in data set [2]; 2.43 µM in data set [3]; 2.11 µM in data set [4]; 1.26 µM in data set [5]; 2.31 µM in data set [6]. Also, in data set [7], the EC50 was 2.19 µM. Further, the CC50 in data set [8] is 2.03 µM.
